SMILES strings stand for the structures.

The record followed here is ChEMBL document CHEMBL3044758, “Weed control in sunn hemp and its ability to suppress weed growth” (Crop Prot, 2011).

The test system of data set [1] is Crotalaria juncea. The data set can be described thus: Herbicidal tolerance in Crotalaria juncea (sunn hump) performance assessed as plant hight at 0.07 kg/ha post-emergence treatment measured after 2 weeks. It is filed as ADME, organism-based. The conditions noted are these: in vivo, other, 336 h.
Data set [2] has as its system Cyperus esculentus. The data set can be described thus: Herbicidal activity against Cyperus esculentus (yellow nutsedge) in sunn hemp assessed as weed control at 0.07 kg/ha post-emergence treatment measured after 2 weeks. Format: functional.
The test system of data set [3] is Crotalaria juncea. In words: Herbicidal tolerance in Crotalaria juncea (sunn hump) performance assessed as injury at 0.07 kg/ha post-emergence treatment measured after 2 weeks. It is filed as ADME, organism-based. The conditions noted are these: in vivo, other, 336 h.
Data set [4] concerns Digitaria sanguinalis. The data set can be described thus: Herbicidal activity against Digitaria sanguinalis (hairy crabgrass) in sunn hemp assessed as weed control at 0.07 kg/ha post-emergence treatment measured after 2 weeks. Format: functional.
The test system of data set [5] is Crotalaria juncea. The data set can be described thus: Herbicidal tolerance in Crotalaria juncea (sunn hump) performance assessed as stand count at 0.07 kg/ha post-emergence treatment measured after 2 weeks. Format: ADME, organism-based. The settings on record: in vivo, other, 336 h.
In data set [6] the test system is Eragrostis cilianensis. In words: Herbicidal activity against Eragrostis cilianensis (stinkgrass) in sunn hemp assessed as weed control at 0.07 kg/ha post-emergence treatment measured after 2 weeks. Format: functional.
The subject of data set [7] is Crotalaria juncea. The data set can be described thus: Herbicidal tolerance in Crotalaria juncea (sunn hump) performance assessed as injury at 1.12 kg/ha post-emergence treatment measured after 2 weeks. Format: ADME, organism-based. The settings on record: in vivo, other, 336 h.
The subject of data set [8] is Eragrostis cilianensis. In words: Herbicidal activity against Eragrostis cilianensis (stinkgrass ) in sunn hemp assessed as weed control at 1.12 kg/ha post-emergence treatment measured after 2 weeks. It is filed as functional.
Data set [9] deals with Crotalaria juncea. In words: Herbicidal tolerance in Crotalaria juncea (sunn hump) performance assessed as stand count at 1.12 kg/ha post-emergence treatment measured after 2 weeks. Format: ADME, organism-based. The settings on record: in vivo, other, 336 h.
Data set [10] concerns Crotalaria juncea. The data set can be described thus: Herbicidal tolerance in Crotalaria juncea (sunn hump) performance assessed as plant hight at 1.12 kg/ha post-emergence treatment measured after 2 weeks. It is filed as ADME, organism-based. The conditions noted are these: in vivo, other, 336 h.
In data set [11] the test system is Cyperus esculentus. The data set can be described thus: Herbicidal activity against Cyperus esculentus (yellow nutsedge) in sunn hemp assessed as weed control at 1.12 kg/ha post-emergence treatment measured after 2 weeks. Format: functional.
The test system of data set [12] is Digitaria sanguinalis. The data set can be described thus: Herbicidal activity against Digitaria sanguinalis (hairy crabgrass) in sunn hemp assessed as weed control at 1.12 kg/ha post-emergence treatment measured after 2 weeks. It is filed as functional.

For the molecule `Cc1cnc(C2=NC(=O)C(C)(C(C)C)N2)c(C(=O)O)c1` (configuration not stated) [IMAZAPIC], the Activity in the data set with Crotalaria juncea [1] was 110 cm; with Cyperus esculentus [2], 91%; with Crotalaria juncea [3] it was 9%; in the data set with Digitaria sanguinalis [4], 76%; in the data set with Crotalaria juncea [5] it was 8.18 /m2; with Eragrostis cilianensis [6], 93%.

Take `CCC(CC)Nc1c([N+](=O)[O-])cc(C)c(C)c1[N+](=O)[O-]` [PENDIMETHALIN]: the Activity in the data set on Crotalaria juncea [7] was 7%; with Eragrostis cilianensis [8], 94%; in the data set with Crotalaria juncea [9], 8.18 /m2; with Crotalaria juncea [10], 108 cm; in the data set with Cyperus esculentus [11] it was 63%; with Digitaria sanguinalis [12] it was 78%.
